Measured values as given in ChEMBL document CHEMBL4020779, “Thio-functionalized carbohydrate thiosemicarbazones and evaluation of their anticancer activity” (Bioorg Med Chem Lett, 2017).
Activity calls are given as the source filed them. No cut-off for these calls is given here.

Columns and labels:
LoVo [1] = assay: Cytotoxicity against human LoVo cells after 72 hrs by CCK8 assay; format: functional, cell-based
LoVo [2] = assay: Induction of apoptosis in human LoVo cells assessed as apoptotic cells at 0.106 uM after 24 hrs by Annexin-V-FITC/propidium iodide staining-based flow cytometric analysis (reference value: 7.9%); format: functional
HeLa [3] = assay: Cytotoxicity against human HeLa cells after 72 hrs by CCK8 assay; format: functional, cell-based
A2780 [4] = assay: Induction of oxidative stress in human A2780 cells assessed as increase in ROS level in cytoplasm at IC50 after 1 hr by H2DCF-DA probe based fluorescence assay; format: functional, cell-based
A2780 [5] = assay: Induction of apoptosis in human A2780 cells assessed as necrotic cells at 0.115 uM after 24 hrs by Annexin-V-FITC/propidium iodide staining-based flow cytometric analysis (reference value: 4.1%); format: functional
LoVo [6] = assay: Induction of apoptosis in human LoVo cells assessed as viable cells at 0.106 uM after 24 hrs by Annexin-V-FITC/propidium iodide staining-based flow cytometric analysis (reference value: 89.7%); format: functional; conditions: read-out: Activity
M059J [7] = assay: Genotoxicity in human M059J cells assessed as induction of DNA damage at 500 uM after 1 hr under alkaline condition by comet assay relative to control; format: functional
A2780 [8] = assay: Induction of DNA fragmentation in human A2780 cells assessed as apoptotic cells at 460.6 uM after 24 hrs by BrdU/FITC staining-based TUNEL assay (reference value: 3.9%); format: functional
LoVo [9] = assay: Induction of apoptosis in human LoVo cells assessed as necrotic cells at 426 uM after 24 hrs by Annexin-V-FITC/propidium iodide staining-based flow cytometric analysis (reference value: 2.9%); format: functional
M059J [10] = assay: Cytotoxicity against human M059J cells after 72 hrs by CCK8 assay; format: functional, cell-based
LoVo [11] = assay: Induction of apoptosis in human LoVo cells assessed as apoptotic cells at 426 uM after 24 hrs by Annexin-V-FITC/propidium iodide staining-based flow cytometric analysis (reference value: 7.9%); format: functional
A2780 [12] = assay: Genotoxicity in human A2780 cells assessed as induction of DNA damage at 500 uM after 1 hr under alkaline condition by comet assay relative to control; format: functional
LoVo [13] = assay: Induction of apoptosis in human LoVo cells assessed as necrotic cells at 0.106 uM after 24 hrs by Annexin-V-FITC/propidium iodide staining-based flow cytometric analysis (reference value: 2.9%); format: functional
A2780 [14] = assay: Induction of apoptosis in human A2780 cells assessed as viable cells at 0.115 uM after 24 hrs by Annexin-V-FITC/propidium iodide staining-based flow cytometric analysis (reference value: 93.9%); format: functional; conditions: A2780, 24 h, read-out: Activity
LoVo [15] = assay: Induction of DNA fragmentation in human LoVo cells assessed as viable cells at 460.6 uM after 24 hrs by BrdU/FITC staining-based TUNEL assay (reference value: 99.2%); format: functional; conditions: read-out: Activity
A2780 [16] = assay: Induction of apoptosis in human A2780 cells assessed as viable cells at 460.6 uM after 24 hrs by Annexin-V-FITC/propidium iodide staining-based flow cytometric analysis (reference value: 93.9%); format: functional; conditions: A2780, 24 h, read-out: Activity
A2780 [17] = assay: Induction of apoptosis in human A2780 cells assessed as necrotic cells at 460.6 uM after 24 hrs by Annexin-V-FITC/propidium iodide staining-based flow cytometric analysis (reference value: 4.1%); format: functional
A2780 [18] = assay: Induction of DNA fragmentation in human A2780 cells assessed as apoptotic cells at 0.115 uM after 24 hrs by BrdU/FITC staining-based TUNEL assay (reference value: 3.9%); format: functional
LoVo [19] = assay: Induction of DNA fragmentation in human LoVo cells assessed as apoptotic cells at 0.115 uM after 24 hrs by BrdU/FITC staining-based TUNEL assay (reference value: 0.8%); format: functional
A2780 [20] = assay: Cytotoxicity against human A2780 cells after 72 hrs by CCK8 assay; format: functional, cell-based; conditions: A2780, 72 h
A2780 [21] = assay: Induction of apoptosis in human A2780 cells assessed as apoptotic cells at 460.6 uM after 24 hrs by Annexin-V-FITC/propidium iodide staining-based flow cytometric analysis (reference value: 2%); format: functional
A2780 [22] = assay: Induction of DNA fragmentation in human A2780 cells assessed as viable cells at 0.115 uM after 24 hrs by BrdU/FITC staining-based TUNEL assay (reference value: 96.1%); format: functional; conditions: A2780, 24 h, read-out: Activity
LoVo [23] = assay: Induction of DNA fragmentation in human LoVo cells assessed as viable cells at 0.115 uM after 24 hrs by BrdU/FITC staining-based TUNEL assay (reference value: 99.2%); format: functional; conditions: read-out: Activity
MCF7 [24] = assay: Cytotoxicity against human MCF7 cells after 72 hrs by CCK8 assay; format: functional, cell-based; conditions: MCF7, 72 h
A2780 [25] = assay: Induction of oxidative stress in human A2780 cells assessed as increase in ROS level in cytoplasm at IC20 after 1 hr by H2DCF-DA probe based fluorescence assay; format: functional, cell-based
A2780 [26] = assay: Induction of apoptosis in human A2780 cells assessed as apoptotic cells at 0.115 uM after 24 hrs by Annexin-V-FITC/propidium iodide staining-based flow cytometric analysis (reference value: 2%); format: functional
HeLa [27] = assay: Genotoxicity in human HeLa cells assessed as induction of DNA damage at 500 uM after 1 hr under alkaline condition by comet assay relative to control; format: functional
LoVo [28] = assay: Genotoxicity in human LoVo cells assessed as induction of DNA damage at 500 uM after 1 hr under alkaline condition by comet assay relative to control; format: functional
MCF7 [29] = assay: Genotoxicity in human MCF7 cells assessed as induction of DNA damage at 500 uM after 1 hr under alkaline condition by comet assay relative to control; format: functional
A2780 [30] = assay: Induction of DNA fragmentation in human A2780 cells assessed as viable cells at 460.6 uM after 24 hrs by BrdU/FITC staining-based TUNEL assay (reference value: 96.1%); format: functional; conditions: A2780, 24 h, read-out: Activity
LoVo [31] = assay: Induction of apoptosis in human LoVo cells assessed as viable cells at 426 uM after 24 hrs by Annexin-V-FITC/propidium iodide staining-based flow cytometric analysis (reference value: 89.7%); format: functional; conditions: read-out: Activity
LoVo [32] = assay: Induction of DNA fragmentation in human LoVo cells assessed as apoptotic cells at 460.6 uM after 24 hrs by BrdU/FITC staining-based TUNEL assay (reference value: 0.8%); format: functional

With CC(=O)OC[C@H]1O[C@@H](O[C@H]2[C@H](OC(C)=O)[C@@H](OC(C)=O)[C@H](S[C@@H]3CC(=O)[C@@H]4OC[C@H]3O4)O[C@@H]2COC(C)=O)[C@H](OC(C)=O)[C@@H](OC(C)=O)[C@H]1OC(C)=O the IC20 (LoVo [1]) was 106 µM, the IC50 (LoVo [1]) was 426 µM and the Activity (LoVo [2]) was 12.5%. The IC50 (HeLa [3]) was 875 µM, the Activity (A2780 [4]) was “inactive” and the Activity (A2780 [5]) was 1.4%. It also gave a viability at 0.106 µM (LoVo [6]) of 82%, an Activity (M059J [7]) of less than 10% and an Activity (A2780 [8]) of 41%. The Activity (LoVo [9]) was 12.6%, the IC50 (M059J [10]) was 827 µM and the Activity (LoVo [11]) was 16.3%. For the same compound, the Activity (A2780 [12]) was less than 10%, the Activity (LoVo [13]) was 5.5% and the viability at 0.115 µM (A2780 [14]) was 91.6%. For the same compound, the viability at 460.6 µM (LoVo [15]) was 90.6%, the viability at 460.6 µM (A2780 [16]) was 71.4% and the Activity (A2780 [17]) was 5.7%. For the same compound, the Activity (A2780 [18]) was 15.5%, the Activity (LoVo [19]) was 6.3% and the IC20 (A2780 [20]) was 0.115 µM. It also gave an IC50 (A2780 [20]) of 461 µM, an Activity (A2780 [21]) of 22.9% and a viability at 0.115 µM (A2780 [22]) of 85.5%. For the same compound, the viability at 0.115 µM (LoVo [23]) was 96.7%, the IC50 (MCF7 [24]) was 913 µM and the Activity (A2780 [25]) was “inactive”. For the same compound, the Activity (A2780 [26]) was 7%, the Activity (HeLa [27]) was less than 10% and the Activity (LoVo [28]) was 10 - 20%. For the same compound, the Activity (MCF7 [29]) was less than 10%, the viability at 460.6 µM (A2780 [30]) was 59% and the viability at 426 µM (LoVo [31]) was 71.2%. The Activity (LoVo [32]) was 9.4%.
